Results as given in patent publication US7763267B2, “Versatile high load concentrate compositions for control of ecto- parasites” (Wyeth LLC, priority 2005, dated 2010).

Tested on: biting lice
Assay: Effect of metaflumizone body spray on biting lice of sheep
Assay type: in vivo
Settings: 10 mg/kg as body spray (1500 ml/animal), vs untreated control lice/animal
Method: 12.59 grams of metaflumizone is added to dimethyl isosorbide using mild heating (approximately 40° C.). To this solution is added 109.92 grams Cremophor® EL (polyethoxylated castor oil, sold by Basf Aktiengesellschaft), with stirring, followed by q.s. 200 ml 1-methoxy-2-propyl acetate The resultant solution is stored until ready for use, whereupon it can be diluted with water for use as a spray (17 ml of concentrate diluted to 3500 ml with water), or with water for use as a feed/water additive (in approximately the same ratio).
This formulation was diluted with water to a metaflumizone concentration of 10 mg/kg bodyweight, and applied to sheep at 1500 ml/animal to test the effect of metaflumizone on biting lice

Measured: % Efficacy

N#Cc1ccc(CC(=NNC(=O)Nc2ccc(OC(F)(F)F)cc2)c2cccc(C(F)(F)F)c2)cc1 [metaflumizone, (E Z)-2-[2-(4-cyanophenyl)-1-[3-(trifluoromethyl)phenyl]ethylidene]-N-[4-(trifluoromethoxy)phenyl]hydrazinecarboxamide]
100%: 7 days after treatment | 14 days after treatment | 21 days after treatment | 28 days after treatment
